ChEMBL document CHEMBL5321213, “Nicolaioidesin C: An Antiausterity Agent Shows Promising Antitumor Activity in a Pancreatic Cancer Xenograft Mouse Model” (J Nat Prod, 2023)
Activity calls are given as the source filed them. The calls are words filed in the database; no cut-off is given here.

How the values were obtained:
MIA PaCa-2 [1] = experiment: Antitumor activity against human MIA PaCa-2 cells xenografted in athymic BALB/c-nu mouse assessed as fold change in benzoic acid level in tumor at 2 mg/kg/day, ip administered five times per week for 4 weeks by LC-MS analysis; format: functional
PANC-1 [2] = experiment: Inhibition of autophagy in human PANC-1 cells in nutrient-deprived medium assessed as downregulation of LC3-I protein expression measured after 6 hrs by Western blot analysis; format: functional, cell-based; conditions: dose 5-20 µM
[3] = Toxicity in athymic BALB/c-nu mouse xenografted with human MIA PaCa-2 cells assessed as animal death at 2 to 10 mg/kg/day, ip administered five times per week for 4 weeks; format: organism-based; conditions: in vivo, 672 h, dose 2-10 mg/kg/day
MIA PaCa-2 [4] = experiment: Antitumor activity against human MIA PaCa-2 cells xenografted in athymic BALB/c-nu mouse assessed as fold change in cytidine 5'-monophosphate level in tumor at 10 mg/kg/day, ip administered five times per week for 4 weeks by LC-MS analysis; format: functional
MIA PaCa-2 [5] = experiment: Antitumor activity against human MIA PaCa-2 cells xenografted in athymic BALB/c-nu mouse assessed as fold change in N-acetylneuraminic acid level in tumor at 2 mg/kg/day, ip administered five times per week for 4 weeks by LC-MS analysis; format: functional
MIA PaCa-2 [6] = experiment: Antitumor activity against human MIA PaCa-2 cells xenografted in athymic BALB/c-nu mouse assessed as fold change in sphinganine level in tumor at 10 mg/kg/day, ip administered five times per week for 4 weeks by LC-MS analysis; format: functional
MIA PaCa-2 [7] = experiment: Antitumor activity against human MIA PaCa-2 cells xenografted in athymic BALB/c-nu mouse assessed as fold change in D-ribulose 5-phosphate level in tumor at 2 mg/kg/day, ip administered five times per week for 4 weeks by LC-MS analysis; format: functional
MIA PaCa-2 [8] = experiment: Antitumor activity against human MIA PaCa-2 cells xenografted in athymic BALB/c-nu mouse assessed as fold change in tetramethyl urea level in tumor at 10 mg/kg/day, ip administered five times per week for 4 weeks by LC-MS analysis; format: functional
MIA PaCa-2 [9] = experiment: Antitumor activity against human MIA PaCa-2 cells xenografted in athymic BALB/c-nu mouse assessed as fold change in alanine level in tumor at 10 mg/kg/day, ip administered five times per week for 4 weeks by LC-MS analysis; format: functional
MIA PaCa-2 [10] = experiment: Antimetastatic activity in human MIA PaCa-2 cells in nutrient-rich medium assessed as open wound area at 20 uM measured every 15 mins for 48 hrs by live cell imaging analysis (reference value: 17%); format: functional
MIA PaCa-2 [11] = experiment: Antitumor activity against human MIA PaCa-2 cells xenografted in athymic BALB/c-nu mouse assessed as reduction in LC3-1 level in tumor at 2 to 10 mg/kg/day, ip administered five times per week for 4 weeks by immunohistochemistry analysis; format: functional, organism-based; conditions: dose 2-10 mg/kg/day
MIA PaCa-2 [12] = experiment: Antitumor activity against human MIA PaCa-2 cells xenografted in athymic BALB/c-nu mouse assessed as fold change in N-acetyl- L-glutamic acid level in tumor at 2 mg/kg/day, ip administered five times per week for 4 weeks by LC-MS analysis; format: functional
MIA PaCa-2 [13] = experiment: Inhibition of autophagy in human MIA PaCa-2 cells in nutrient-deprived medium assessed as downregulation of LC3-II protein expression measured after 6 hrs by Western blot analysis; format: functional, cell-based; conditions: dose 5-20 µM
MIA PaCa-2 [14] = experiment: Antitumor activity against human MIA PaCa-2 cells xenografted in athymic BALB/c-nu mouse assessed as fold change in asparagine level in tumor at 10 mg/kg/day, ip administered five times per week for 4 weeks by LC-MS analysis; format: functional
PANC-1 [15] = experiment: Inhibition of Akt/mTOR signaling pathway in human PANC-1 cells in nutrient-deprived medium assessed as reduction in mTOR phosphorylation at S2481 residue measured after 6 hrs by Western blot analysis; format: cell-based; conditions: dose 5-20 µM
MIA PaCa-2 [16] = experiment: Inhibition of Akt/mTOR signaling pathway in human MIA PaCa-2 cells in nutrient-deprived medium assessed as reduction in mTOR phosphorylation at S2481 residue measured after 6 hrs by Western blot analysis; format: cell-based; conditions: dose 5-20 µM
MIA PaCa-2 [17] = experiment: Antitumor activity against human MIA PaCa-2 cells xenografted in athymic BALB/c-nu mouse assessed as fold change in leucine level in tumor at 10 mg/kg/day, ip administered five times per week for 4 weeks by LC-MS analysis; format: functional
MIA PaCa-2 [18] = experiment: Antitumor activity against human MIA PaCa-2 cells xenografted in athymic BALB/c-nu mouse assessed as fold change in glycerol 3-phosphate level in tumor at 2 mg/kg/day, ip administered five times per week for 4 weeks by LC-MS analysis; format: functional
MIA PaCa-2 [19] = experiment: Antitumor activity against human MIA PaCa-2 cells xenografted in athymic BALB/c-nu mouse assessed as fold change in glycerol-3-phosphate level in tumor at 10 mg/kg/day, ip administered five times per week for 4 weeks by LC-MS analysis; format: functional
MIA PaCa-2 [20] = experiment: Antimetastatic activity in human MIA PaCa-2 cells in DMEM media assessed as inhibition of colony formation at 20 uM incubated for 24 hrs followed by replacement with fresh medium and measured after 10 days by crystal violet staining-based assay relative to control; format: functional
MIA PaCa-2 [21] = experiment: Inhibition of Akt/mTOR signaling pathway in human MIA PaCa-2 cells in nutrient-deprived medium assessed as reduction in AKT phosphorylation at S473 residue measured after 6 hrs by Western blot analysis; format: cell-based; conditions: dose 5-20 µM
MIA PaCa-2 [22] = experiment: Antitumor activity against human MIA PaCa-2 cells xenografted in athymic BALB/c-nu mouse assessed as fold change in lysine level in tumor at 2 mg/kg/day, ip administered five times per week for 4 weeks by LC-MS analysis; format: functional
MIA PaCa-2 [23] = experiment: Antitumor activity against human MIA PaCa-2 cells xenografted in athymic BALB/c-nu mouse assessed as fold change in Gly-Leu metabolite level in tumor at 2 mg/kg/day, ip administered five times per week for 4 weeks by LC-MS analysis; format: functional
PANC-1 [24] = experiment: Preferential cytotoxicity against human PANC-1 cells in nutrient-deprived medium assessed as alteration in cell morphology by measuring cell rounding at 5 uM measured after 24 hrs by acridine orange and ethidium bromide dual fluorescent staining based imaging analysis; format: functional
MIA PaCa-2 [25] = experiment: Antitumor activity against human MIA PaCa-2 cells xenografted in athymic BALB/c-nu mouse assessed as fold change in N-acetyl-L-glutamicacid level in tumor at 10 mg/kg/day, ip administered five times per week for 4 weeks by LC-MS analysis; format: functional
MIA PaCa-2 [26] = experiment: Antitumor activity against human MIA PaCa-2 cells xenografted in athymic BALB/c-nu mouse assessed as fold change in uracil level in tumor at 2 mg/kg/day, ip administered five times per week for 4 weeks by LC-MS analysis; format: functional
MIA PaCa-2 [27] = experiment: Antitumor activity against human MIA PaCa-2 cells xenografted in athymic BALB/c-nu mouse assessed as fold change in 2'-deoxycytidine level in tumor at 2 mg/kg/day, ip administered five times per week for 4 weeks by LC-MS analysis; format: functional
MIA PaCa-2 [28] = experiment: Preferential cytotoxicity against human MIA PaCa-2 cells in nutrient-deprived medium assessed as alteration in cell morphology by measuring rupture of cell membrane at 5 uM measured after 24 hrs by acridine orange and ethidium bromide dual fluorescent staining based imaging analysis; format: functional

## COc1cc(O)c(C(=O)[C@@H]2CC=C(CCC=C(C)C)C[C@H]2c2ccccc2)c(O)c1
MIA PaCa-2 [1]
  fold change (FC): 0.43
PANC-1 [2]
  inhibition: Dose-Dependent Effect
[3]
  Activity: Non-Toxic
MIA PaCa-2 [4]
  fold change (FC): 0.31
MIA PaCa-2 [5]
  fold change (FC): 0.33
MIA PaCa-2 [6]
  fold change (FC): 3.68
MIA PaCa-2 [7]
  fold change (FC): 0.22
MIA PaCa-2 [8]
  fold change (FC): 0.51
MIA PaCa-2 [9]
  fold change (FC): 0.42
MIA PaCa-2 [10]
  Activity: 66%
MIA PaCa-2 [11]
  Activity: Active
MIA PaCa-2 [12]
  fold change (FC): 0.45
MIA PaCa-2 [13]
  inhibition: Dose-Dependent Effect
MIA PaCa-2 [14]
  fold change (FC): 0.29
PANC-1 [15]
  inhibition: Dose-Dependent Effect
MIA PaCa-2 [16]
  inhibition: Dose-Dependent Effect
MIA PaCa-2 [17]
  fold change (FC): 0.41
MIA PaCa-2 [18]
  fold change (FC): 0.4
MIA PaCa-2 [19]
  fold change (FC): 0.24
MIA PaCa-2 [20]
  inhibition at 20 µM: 95%
MIA PaCa-2 [21]
  inhibition: Dose-Dependent Effect
MIA PaCa-2 [22]
  fold change (FC): 0.32
MIA PaCa-2 [23]
  fold change (FC): 0.45
PANC-1 [24]
  Activity: Active
MIA PaCa-2 [25]
  fold change (FC): 0.28
MIA PaCa-2 [26]
  fold change (FC): 0.29
MIA PaCa-2 [27]
  fold change (FC): 0.63
MIA PaCa-2 [28]
  Activity: Active
